# Reference: US10112935B2, “Indazolyl thiadiazolamines and related compounds for inhibition of Rho-associated protein kinase and the treatment of disease” (Lycera Corporation, priority 2015, dated 2018)
# Assays:
# [1] = biological target: GST-tagged human ROCK2 catalytic domain 1-553 (Homo sapiens (Human), UniProt O75116); experiment: Inhibition of Rho-associated protein kinase isoform 2 (LANCE Ultra ULight-CREBtide FRET kinase assay); assay type: biochemical; settings: for IC50: 30 μM was the highest concentration analyzed; for Selectivity for ROCK2 over ROCK1 (IC50 ROCK1 / IC50 ROCK2): selectivity ROCK2 vs ROCK1
# Chain of GST-tagged human ROCK2 catalytic domain 1-553 (O75116 1-553): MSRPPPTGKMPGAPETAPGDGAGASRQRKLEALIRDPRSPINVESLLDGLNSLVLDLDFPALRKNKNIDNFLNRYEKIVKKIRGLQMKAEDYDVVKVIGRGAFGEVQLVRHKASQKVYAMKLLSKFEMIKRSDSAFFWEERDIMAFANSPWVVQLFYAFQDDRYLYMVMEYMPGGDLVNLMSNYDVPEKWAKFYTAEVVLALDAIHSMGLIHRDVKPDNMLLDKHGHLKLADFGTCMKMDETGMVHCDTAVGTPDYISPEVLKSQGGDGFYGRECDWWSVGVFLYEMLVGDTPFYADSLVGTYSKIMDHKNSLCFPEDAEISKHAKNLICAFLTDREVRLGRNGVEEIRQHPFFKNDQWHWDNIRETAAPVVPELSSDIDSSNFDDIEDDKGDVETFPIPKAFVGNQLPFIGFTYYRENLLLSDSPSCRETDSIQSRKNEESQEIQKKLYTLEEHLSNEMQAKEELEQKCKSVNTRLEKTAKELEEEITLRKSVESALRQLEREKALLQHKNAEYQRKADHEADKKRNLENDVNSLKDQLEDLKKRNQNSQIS
# Description: (§1) Exemplary compounds were tested for ability to inhibit Rho-associated protein kinase isoform 1 (ROCK1) and Rho-associated protein kinase isoform 2 (ROCK2). Assay procedures and results are described below.
# (§2) Protein constructs were purified from a baculovirus expression system. The peptide substrate was fluorescent LANCE® Ultra ULight-CREBtide: […] (PerkinElmer, # TRF0107-D). […] After a 90 minute incubation at room temperature on a shaker table, the kinase reaction was stopped by addition of 10 mM EDTA, and phosphorylation of the substrate was detected by adding 1 nM LANCE® Ultra Europium-anti-phospho-CREB (ser133) antibody (PerkinElmer, # TRF0200-D) and incubating for 60 minutes on a shaker at room temperature. The flurorescence resonance energy transfer (FRET) signals were read and analyzed on an Envision™ 2103 Multilabel Reader (Perkin Elmer).
# [2] = biological target: GST-tagged human ROCK1 catalytic domain 1-477 (Homo sapiens (Human), UniProt Q13464); experiment: Inhibition of Rho-associated protein kinase isoform 1 (LANCE Ultra ULight-CREBtide FRET kinase assay); assay type: biochemical; settings: 30 μM was the highest concentration analyzed
# Chain of GST-tagged human ROCK1 catalytic domain 1-477 (Q13464 1-477): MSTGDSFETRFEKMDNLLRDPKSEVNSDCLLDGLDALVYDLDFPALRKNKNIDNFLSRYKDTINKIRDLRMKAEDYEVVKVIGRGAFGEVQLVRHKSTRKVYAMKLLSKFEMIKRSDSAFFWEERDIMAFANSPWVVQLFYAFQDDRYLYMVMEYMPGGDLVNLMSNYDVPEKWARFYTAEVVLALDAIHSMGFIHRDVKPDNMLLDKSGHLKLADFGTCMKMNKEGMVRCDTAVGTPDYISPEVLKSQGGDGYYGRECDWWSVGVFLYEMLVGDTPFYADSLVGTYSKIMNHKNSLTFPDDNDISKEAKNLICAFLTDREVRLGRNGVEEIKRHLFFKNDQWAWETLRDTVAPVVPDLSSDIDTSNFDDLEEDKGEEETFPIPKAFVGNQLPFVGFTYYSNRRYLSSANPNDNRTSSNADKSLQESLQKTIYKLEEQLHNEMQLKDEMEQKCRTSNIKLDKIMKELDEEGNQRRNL
# Description: as §1, §2
Structure (SMILES),IC50 [1],Selectivity for ROCK2 over ROCK1 (IC50 ROCK1 / IC50 ROCK2) [1],IC50 [2]
N#Cc1ccc(CC(=O)Nc2cccc(-c3nnc(Nc4ccc5[nH]ncc5c4Cl)s3)c2)cc1 [Example 35BK],< 1 µM,>100,> 30 µM
Cn1ccnc1CC(=O)Nc1cccc(-c2nnc(Nc3ccc4[nH]ncc4c3Cl)s2)c1 [Example 35BL],< 1 µM,>100,> 30 µM
O=C(Cc1ccccn1)Nc1cccc(-c2nnc(Nc3ccc4[nH]ncc4c3Cl)s2)c1 [Example 35BM],< 1 µM,>100,> 30 µM
Cc1cc(CC(=O)Nc2cccc(-c3nnc(Nc4ccc5[nH]ncc5c4Cl)s3)c2)on1 [Example 35BN],< 1 µM,>5,< 1 µM
O=C(Cc1ccc(F)cc1)Nc1cccc(-c2nnc(Nc3ccc4[nH]ncc4c3Cl)s2)c1 [Example 35BO],< 1 µM,>50,< 1 µM
O=C(Cc1cnccn1)Nc1cccc(-c2nnc(Nc3ccc4[nH]ncc4c3Cl)s2)c1 [Example 35BP],< 1 µM,>5,< 1 µM
COc1ccc(CC(=O)Nc2cccc(-c3nnc(Nc4ccc5[nH]ncc5c4Cl)s3)c2)cc1 [Example 35BQ],< 1 µM,>5,< 1 µM
O=C(Nc1cccc(-c2nnc(Nc3ccc4[nH]ncc4c3Cl)s2)c1)c1cnccn1 [Example 35BR],< 1 µM,>100,> 30 µM
COc1ccc(C(=O)Nc2cccc(-c3nnc(Nc4ccc5[nH]ncc5c4Cl)s3)c2)cc1 [Example 35BS],< 1 µM,<5,< 1 µM
COc1cccc(C(=O)Nc2cccc(-c3nnc(Nc4ccc5[nH]ncc5c4Cl)s3)c2)c1 [Example 35BT],< 1 µM,>5,< 1 µM
Cn1cc(C(=O)Nc2cncc(-c3nnc(Nc4ccc5[nH]ncc5c4Cl)s3)c2)cn1 [Example 35BU],< 1 µM,>5,< 1 µM
NCCn1cc(C(=O)Nc2cc(-c3nnc(Nc4ccc5[nH]ncc5c4)s3)ccn2)cn1.O=C(O)C(F)(F)F [Example 35BV],< 1 µM,>50,< 1 µM
Cn1cc(C(=O)Nc2cccc(-c3nnc(Nc4ccc5[nH]nc(F)c5c4)s3)c2)cn1 [Example 35BW],> 30 µM,–,> 30 µM
Cn1cc(C(=O)Nc2cc(-c3nnc(Nc4ccc5[nH]ncc5c4)s3)ccn2)cn1.O=C(O)C(F)(F)F [Example 35BY],–,>100,> 30 µM
Cn1cc(C(=O)Nc2cc(F)c(F)c(-c3nnc(Nc4ccc5[nH]ncc5c4)s3)c2)cn1 [Example 35BZ],< 1 µM,>100,> 30 µM
O=C(Nc1cc(-c2nnc(Nc3ccc4[nH]ncc4c3Cl)s2)ccn1)c1ccc(F)cc1.O=C(O)C(F)(F)F [Example 35B],< 1 µM,<5,< 1 µM
Cn1cc(C(=O)Nc2cncc(-c3nnc(Nc4ccc5[nH]ncc5c4)s3)c2)cn1.O=C(O)C(F)(F)F [Example 35CA],< 1 µM,<5,< 1 µM
CC(=O)Nc1cc(F)c(F)c(-c2nnc(Nc3ccc4[nH]ncc4c3)s2)c1 [Example 35CB],< 1 µM,>100,> 30 µM

Structure (SMILES),IC50 [1],Selectivity for ROCK2 over ROCK1 (IC50 ROCK1 / IC50 ROCK2) [1],IC50 [2]
O=C(O)C(F)(F)F.O=C(O)CS(=O)(=O)Nc1cccc(-c2nnc(Nc3ccc4[nH]ncc4c3)s2)c1 [Example 35CD],1 to 15 µM,<5,1 to 15 µM
NCCn1cc(C(=O)Nc2cccc(-c3nnc(Nc4ccc5[nH]ncc5c4)s3)c2)cn1 [Example 35CE],< 1 µM,>5,< 1 µM
NCc1cncc(C(=O)Nc2cccc(-c3nnc(Nc4ccc5[nH]ncc5c4)s3)c2)c1.O=C(O)C(F)(F)F [Example 35CF],< 1 µM,>5,1 to 15 µM
O=C(Nc1cccc(-c2nnc(Nc3ccc4[nH]ncc4c3)s2)c1)c1cnn(CC(O)CO)c1 (centres unmarked) [Example 35CG],< 1 µM,>5,< 1 µM
O=C(Nc1cccc(-c2nnc(Nc3ccc4[nH]ncc4c3)s2)c1)C(O)CO (centres unmarked) [Example 35CI],< 1 µM,<5,< 1 µM
O=C(O)c1cccc(-c2nnc(Nc3ccc4[nH]ncc4c3)s2)c1 [Example 35CL],1 to 15 µM,–,15 to 30 µM
CCS(=O)(=O)Nc1cncc(-c2nnc(Nc3ccc4[nH]ncc4c3)s2)c1.O=C(O)C(F)(F)F [Example 35CN],1 to 15 µM,>5,1 to 15 µM
O=C(O)COc1cccc(-c2nnc(Nc3ccc4[nH]ncc4c3)s2)c1 [Example 35CO],1 to 15 µM,–,1 to 15 µM
CC(C)NC(=O)COc1cccc(-c2nnc(Nc3ccc4[nH]ncc4c3)s2)c1 [Example 35CP],< 1 µM,>5,15 to 30 µM
Nc1cc(-c2nnc(Nc3ccc4[nH]ncc4c3)s2)ccn1.O=C(O)C(F)(F)F [Example 35CQ],< 1 µM,>100,> 30 µM
Nc1cccc(-c2nnc(Nc3ccc4[nH]ncc4c3)s2)n1.O=C(O)C(F)(F)F [Example 35CR],< 1 µM,>5,> 30 µM
Nc1cncc(-c2nnc(Nc3ccc4[nH]ncc4c3)s2)c1.O=C(O)C(F)(F)F [Example 35CS],1 to 15 µM,<5,< 1 µM
Nc1ccnc(-c2nnc(Nc3ccc4[nH]ncc4c3)s2)c1.O=C(O)C(F)(F)F [Example 35CT],< 1 µM,>5,> 30 µM
Nc1cccc(-c2nsc(Nc3ccc4[nH]ncc4c3)n2)c1 [Example 35CU],1 to 15 µM,>5,> 30 µM
CC(=O)c1cc(-c2nnc(Nc3ccc4[nH]ncc4c3Cl)s2)ccn1 [Example 35CV],< 1 µM,>50,1 to 15 µM
CC(C(=O)Nc1cccc(-c2nnc(Nc3ccc4[nH]ncc4c3Cl)s2)c1)c1ccc(F)cc1 (centres unmarked) [Example 35E],< 1 µM,>50,1 to 15 µM
CCCOC(=O)Nc1cc(-c2nnc(Nc3ccc4[nH]ncc4c3Cl)s2)ccn1.O=C(O)C(F)(F)F [Example 35F],< 1 µM,>100,> 30 µM
O=C(Cc1ccc(F)cc1)Nc1cc(-c2nnc(Nc3ccc4[nH]ncc4c3Cl)s2)ccn1 [Example 35G],< 1 µM,>5,< 1 µM
